Structures are written as SMILES.

One experiment has as its target T1, hP2X3 (human Purinergic P2X receptors subtype 3) (Homo sapiens, UniProt P56373).
T1 construct: expressed in transfected cells; host or cells: RLE cells (rat liver endothelium, ATCC)
T1 sequence (P56373 1-397): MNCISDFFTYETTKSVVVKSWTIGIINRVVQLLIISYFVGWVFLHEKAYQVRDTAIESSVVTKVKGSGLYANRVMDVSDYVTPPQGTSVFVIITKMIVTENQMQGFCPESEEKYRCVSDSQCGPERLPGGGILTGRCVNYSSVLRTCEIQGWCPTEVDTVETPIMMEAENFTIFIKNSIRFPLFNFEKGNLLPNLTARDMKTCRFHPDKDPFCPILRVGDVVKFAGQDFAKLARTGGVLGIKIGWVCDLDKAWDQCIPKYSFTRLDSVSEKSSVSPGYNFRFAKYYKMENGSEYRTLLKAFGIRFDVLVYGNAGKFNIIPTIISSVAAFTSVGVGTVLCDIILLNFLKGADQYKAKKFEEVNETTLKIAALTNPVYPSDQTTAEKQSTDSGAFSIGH
The experiment in a line: Fluo-4 calcium mobilization assay (FDSS7000), antagonists at human P2X3 receptor in RLE/hP2X3 cells. In kind it is cell-based. Conditions: RLE cells stably expressing hP2X3; 20 min preincubation; 2 uM ATP. As to the method:
The antagonist properties of compounds in the present invention were assayed as inhibitors of intracellular calcium increase induced by activation of hP2X3 (human Purinergic P2X receptors subtype 3, accession number AB016608 for clone A and accession number NM_002559 for clone B), expressed in RLE cells (rat liver […], ATCC. The RLE/hP2X3 cells were grown in William's medium 1× (Gibco, 12551-032), supplemented with 10% Fetal bovine serum (Wisent, 090850), 2 mM L-Glutamine (Wisent, 609-065-EL), and 600 μg/mL Geneticin G-418 (Wisent, 61234) in a humidified incubator (5% CO2 and 37° C.).
Fluo-4 assay on FDSS7000 (Hamamatsu) was performed using cryopreserved RLE cells stably expressing hP2X3 plated in 384 well plates, 24 hr before the experiment at a density appropriate for obtaining the desired final confluence. After processing the cell plates with Fluo-4 and performing a subsequent incubation followed by washing steps, a double addition was carried out. The first addition included the test compounds diluted in HBSS buffer containing 2 mM CaCl2 preincubated for 20 min before a second addition. The second addition included 2 uM of ATP. Calcium mobilization was measured with the FDSS7000 over a time lapse of 3 min, and fluorescent counts were exported for analysis. […] Hill coefficients and % inhibitions can also be determined.
A general note: Calcium assays in cells follow changes in intracellular calcium, usually with a dye or a luminescent sensor.
Take `CCC(=O)N1CCO[C@@H](Cc2c(-c3c(F)cc(C(=O)NC)cc3F)nc3cc(C)ccn23)C1` [Example 16]: the IC50 was 3 nM.

For `CCC(=O)N1CCO[C@@H](Cc2c(-c3cc(F)c(C(=O)NC)cc3C)nc3cc(C)ccn23)C1` [Example 17], the half-maximal inhibitory concentration (IC50) stood at 6 nM.

Take `CNC(=O)c1cc(C)c(-c2nc3cc(C)ccn3c2C[C@H]2CN(C(C)=O)CCO2)cc1F` [Example 18]: the concentration for half-maximal inhibition (IC50) turned out to be 7 nM.

Turning to `CNC(=O)c1cc(C)c(-c2nc3cc(C)ccn3c2C[C@@H]2CN(C(C)=O)CCO2)cc1F` [Example 19], the IC50 was determined as 158 nM.

For `CNC(=O)c1ccc(-c2nc3cc(C)ccn3c2C[C@H]2CN(C(C)=O)CCO2)c(C)c1` [Example 20], the IC50 was 4 nM.

Regarding `CNC(=O)c1ccc(-c2nc3cc(C)ccn3c2C[C@H]2CN(C(=O)OC)CCO2)c(C)c1` [Example 21], the IC50 was determined as 7 nM.

In the case of `CNC(=O)c1ccc(-c2nc3cc(C)ccn3c2C[C@@H]2CN(C(=O)OC)CCO2)c(C)c1` [Example 22], the IC50 was determined as 45 nM.

For `CNC(=O)c1cc(F)c(-c2nc3cc(C)ccn3c2C[C@H]2CN(C(C)=O)CCO2)cc1F` [Example 23], the IC50 is 18 nM.

In the case of `CNC(=O)c1cc(C)c(-c2nc3cc(C)ccn3c2C[C@H]2CN(C(=O)OC)CCO2)cc1F` [Example 24], the IC50 is 10 nM.

On to `CNC(=O)c1ccc(-c2nc3cc(Cl)ccn3c2C[C@H]2CN(C(C)=O)CCO2)c(C)c1` [Example 25], for which the IC50 was found to be 7 nM.

As for `CCC(=O)N1CCO[C@@H](Cc2c(-c3cc(F)c(C(=O)NC)cc3C)nc3cc(Cl)ccn23)C1` [Example 26], the IC50 is 11 nM.

With `CNC(=O)c1ccc(-c2nc3cc(Cl)ccn3c2C[C@@H]2CN(C(C)=O)CCO2)c(C)c1` [Example 27], the IC50 came out at 111 nM.

Turning to `CNC(=O)c1cc(F)c(-c2nc3cc(Cl)ccn3c2C[C@H]2CN(C(=O)OC)CCO2)c(F)c1` [Example 28], the IC50 amounted to 6 nM.

On to `CNC(=O)c1cc(F)c(-c2nc3cc(Cl)ccn3c2C[C@H]2CN(C(C)=O)CCO2)c(F)c1` [Example 29], for which the IC50 stood at 5 nM.

On to `CCC(=O)N1CCO[C@@H](Cc2c(-c3c(F)cc(C(=O)NC)cc3F)nc3cc(Cl)ccn23)C1` [Example 30], for which the IC50 came to 6 nM.

Take `CCC(=O)N1CCO[C@@H](Cc2c(-c3ccc(C(=O)NC)cc3C)nc3cc(C)ccn23)C1` [Example 31]: the IC50 worked out at 5 nM.

For the compound `CNC(=O)c1cc(F)c(-c2nc3cc(C)ccn3c2C[C@H]2CN(C(C)=O)CCO2)c(F)c1` [Example 32], the concentration for half-maximal inhibition (IC50) was determined as 3 nM.

Consider `CCNC(=O)c1ccc(-c2nc3cc(C)ccn3c2C[C@H]2CN(C(C)=O)CCO2)c(C)c1` [Example 33], for which the IC50 stood at 7 nM.

In the case of `CCC(=O)N1CCO[C@H](Cc2c(-c3c(F)cc(C(=O)NC)cc3F)nc3cc(C)ccn23)C1` [Example 35], the IC50 turned out to be 16 nM.

Turning to `CNC(=O)c1ccc(-c2nc3cc(C#N)ccn3c2C[C@H]2CN(C(=O)OC)CCO2)c(C)c1` [Example 36], the IC50 worked out at 114 nM.

Consider `CNC(=O)c1ccc(-c2nc3cc(C)ccn3c2CC2CCCN(C(=O)OC)C2)c(C)c1` (stereo not shown) [Example 37], for which the IC50 turned out to be 11 nM.

With `CNC(=O)c1ccc(-c2nc3cc(C)ccn3c2CC2CCCN(C(C)=O)C2)c(C)c1` (stereo not shown) [Example 38], the IC50 was determined as 10 nM.

Take `CNC(=O)c1ccc(-c2nc3cc(C)c(F)cn3c2C[C@H]2CN(C(C)=O)CCO2)c(C)c1` [Example 39]: the half-inhibitory concentration (IC50) came to 10 nM.

As for `CNC(=O)c1ccc(-c2nc3cc(C)ccn3c2CC2CCN(C(=O)OC)C2)c(C)c1` (stereo not shown) [Example 41], the half-inhibitory concentration (IC50) came to 84 nM.

As for `CNC(=O)c1ccc(-c2nc3cc(C)ccn3c2CC2CC(C)N(C(C)=O)C2)c(C)c1` (stereo not shown) [Example 42], the IC50 was determined as 59 nM.

With `CNC(=O)c1ccc(-c2nc3cc(C)ccn3c2CC2CCN(C(C)=O)C2)c(C)c1` (stereo not shown) [Example 44], the 50% inhibitory concentration (IC50) was determined as 103 nM.

For the compound `CNC(=O)c1ccc(-c2nc3cc(C)ccn3c2CC2CCN(C(=O)OC)CC2)c(C)c1` [Example 45, methyl 4-((7-methyl-2-(2-methyl-4-(methylcarbamoyl)phenyl)imidazo[1,2-a]pyridin-3-yl)methyl)piperidine-1-carboxylate], the IC50 is 26 nM.

As to `CNC(=O)c1ccc(-c2nc3cc(C)ccn3c2CC2CCN(C(C)=O)CC2)c(C)c1` [Example 46, 4-(3-((1-acetylpiperidin-4-yl)methyl)-7-methylimidazo[1,2-a]pyridin-2-yl)-N,3-dimethylbenzamide], the IC50 came to 66 nM.

Consider `CNC(=O)c1ccc(-c2nc3cc(C)ccn3c2C[C@@H]2CN(C(C)=O)CCO2)c(C)c1` [Example 47], for which the 50% inhibitory concentration (IC50) turned out to be 87 nM.

The test system of another experiment is rat FCA 96 hr paw model of inflammatory pain, heat hyperalgesia. In words: Rat FCA 96 hr paw model of inflammatory pain: heat hyperalgesia (Plantar Test). In kind it is in vivo. Conditions: oral dosing 0.3-1-3-10-20 μmol/kg, 96 h after FCA. As to the method:
(§1) One of the compounds of the present invention was evaluated in an in vivo model of inflammatory pain.
(§2) Male Sprague-Dawley rats (Charles River, St-Constant, Qc, CAN) weighing 200-225 g were utilized for the animal experiment studies. The animals were group-housed in polycarbonate, ventilated cages (filter top) in a controlled environment room (12-h light/dark cycle, 20.5-23.5° C., relative humidity: 40-70%) with food (14% Protein Rodent Maintenance Diet, Harlan Teklad, Madisson, Wis., USA) and water ad libidum.
Inflammation was induced by injection of a single 40 μl Freund's complete adjuvant (FCA) intra-plantar injection into the rat's left hindpaw. All experiments were conducted 96h after FCA administration. […]
Heat hyperalgesia (Plantar Test) was assessed using a Paw Thermal Stimulator to apply a controlled heat to the plantar surface of the affected paw. […] The heat source and timer were then turned on simultaneously; when the animal withdrew the hind paw the number of seconds was recorded. […]
Satellite animals were used to monitor the free plasma concentration of example 15 at the doses and time points used in the nociceptive tests. Free plasma EC50 values in behavioral studies were determined from 4-point concentration-response curves using non-linear regression and a sigmoidal variable slope logistic model (Prism 4.03, GraphPad Software Inc., USA).
In the case of `CNC(=O)c1cc(F)c(-c2nc3cc(C)ccn3c2C[C@H]2CN(C(=O)OC)CCO2)c(F)c1` [Example 15, (S)-methyl-2-((2-(2,6-difluoro-4-(methylcarbamoyl)phenyl)-7-methylimidazo[1,2-a]pyridin-3-yl)methyl)morpholine-4-carboxylate], the “reversal of heat hyperalgesia” value was “free plasma concentration dependent reversal”.

Another experiment relates to rat FCA 96 hr paw model of inflammatory pain, mechanical hyperalgesia. The experiment in a line: Rat FCA 96 hr paw model of inflammatory pain: mechanical hyperalgesia (Ugo Basile analgesy meter). The class given is in vivo. Conditions: oral dosing 0.3-1-3-10-20 μmol/kg, 96 h after FCA. On the procedure: as §1, §2
Inflammation was induced by injection of a single 40 μl Freund's complete adjuvant (FCA) intra-plantar injection into the rat's left hindpaw. All experiments were conducted 96h after FCA administration. Twenty-four hours prior to behavioral testing animals were brought to the laboratory for acclimatization to the new environment. Animals were sacrificed immediately after data acquisition.
Mechanical hyperalgesia was assessed using the Ugo Basile analgesy meter (Ugo Basile, Comerio, Italy) Animals were gently restrained, and a steadily increasing pressure was applied to the dorsal surface of a hind paw via a probe with a dome-shaped tip (diameter of 1 mm). The pressure required to elicit paw withdrawal was determined. An assay cut off was set at 295 g. […] Paw withdrawal thresholds were calculated as the mean of the two values. […]
Take `CNC(=O)c1cc(F)c(-c2nc3cc(C)ccn3c2C[C@H]2CN(C(=O)OC)CCO2)c(F)c1` [Example 15, (S)-methyl-2-((2-(2,6-difluoro-4-(methylcarbamoyl)phenyl)-7-methylimidazo[1,2-a]pyridin-3-yl)methyl)morpholine-4-carboxylate]: the “reversal of mechanical hyperalgesia” value is “free plasma concentration dependent reversal”.

What is called IC50 is the concentration needed to halve the response being measured.

Values taken from US9937185B2, “Imidazopyridine compounds and uses thereof” (NEOMED INSTITUTE, priority 2013, dated 2018).
